Patent US10023558B2, “Compounds” (CHIESI FARMACEUTICI S.P.A., priority 2016, dated 2018)

Target: T1, human neutrophil elastase (HNE) (Homo sapiens, UniProt P08246)
T1 construct: purchased Sigma E8140
T1 sequence (P08246 30-247 limits assumed): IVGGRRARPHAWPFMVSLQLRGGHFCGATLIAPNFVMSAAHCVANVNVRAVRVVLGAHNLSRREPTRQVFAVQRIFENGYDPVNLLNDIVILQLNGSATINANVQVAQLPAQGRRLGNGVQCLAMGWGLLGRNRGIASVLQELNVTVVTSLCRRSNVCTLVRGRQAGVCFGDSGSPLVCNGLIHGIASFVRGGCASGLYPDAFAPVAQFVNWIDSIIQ
Assay: HNE Enzyme Assay (fluorogenic peptide substrate MeOSuc-Ala-Ala-Pro-Val-AMC)
Format: biochemical
Details: human leukocyte elastase 0.00072 U/mL, substrate 100 μM, 25° C., 30 minutes, at least two separate experiments; read-out: HNE inhibition (IC50 values)
Method in brief: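 Human leukocyte elastase (0.00072 U/mL) with 100 μM MeOSuc-AAPV-AMC in Tris pH 7.5 buffer with NaCl, CaCl2, Brij-35, 1% DMSO, 30 min at 25° C, stopped with soybean trypsin inhibitor. AMC fluorescence (ex 380/em 460 nm); IC50 from concentration-response as % inhibition of control, at least two experiments.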

Row | Compound | IC50
1 | Cc1c(-c2ccnn2-c2ccc(C#N)cc2)n(C(=O)N[C@H]2CC[C@H](NC(=O)OC(C)(C)C)CC2)c(=O)n1-c1cccc(C(F)(F)F)c1 [Example 8, (Trans-4-{[5-[2-(4-cyano-phenyl)-2H-pyrazol-3-yl]-4-methyl-2-oxo-3-(3-trifluoromethyl-phenyl)-2,3-dihydro-imidazole-1-carbonyl]-amino}-cyclohexyl)-carbamic acid tert-butyl ester] | < 1 nM
2 | Cc1c(-c2ccnn2-c2ccc(C#N)cc2)n(C(=O)N[C@H]2CC[C@H](C[N+](C)(C)C)CC2)c(=O)n1-c1cccc(C(F)(F)F)c1 [Example 29, (Trans-4-{[5-[2-(4-cyano-phenyl)-2H-pyrazol-3-yl]-4-methyl-2-oxo-3-(3-trifluoromethyl-phenyl)-2,3-dihydro-imidazole-1-carbonyl]-amino}-cyclohexylmethyl)-trimethyl-ammonium benzene sulfonate] | < 1 nM
3 | Cc1c(-c2ccnn2-c2ccc(C#N)cc2)n(C(=O)N[C@@H](C)C(=O)N2CCN(C)CC2)c(=O)n1-c1cccc(C(F)(F)F)c1 [Example 11, 5-[2-(4-Cyano-phenyl)-2H-pyrazol-3-yl]-4-methyl-2-oxo-3-(3-trifluoromethyl-phenyl)-2,3-dihydro-imidazole-1-carboxylic acid [(S)-1-methyl-2-(4-methyl-piperazin-1-yl)-2-oxo-ethyl]-amide] | < 1 nM

Other lines, results leading:

Row | IC50 | Compound
4 | < 1 nM | Cc1c(-c2ccnn2-c2ccc(C#N)cc2)n(C(=O)NC(C)(C)c2cc[n+](C)cc2)c(=O)n1-c1cccc(C(F)(F)F)c1 [Example 47, 4-(1-{[5-[2-(4-Cyano-phenyl)-2H-pyrazol-3-yl]-4-methyl-2-oxo-3-(3-trifluoromethyl-phenyl)-2,3-dihydro-imidazole-1-carbonyl]-amino}-1-methyl-ethyl)-1-methyl-pyridinium benzene sulfonate]
5 | < 1 nM | Cc1c(-c2ccnn2-c2ccc(C#N)cc2)n(C(=O)N[C@H]2CC[C@H](N(C)C)CC2)c(=O)n1-c1cccc(C(F)(F)F)c1 [Example 9, 5-[2-(4-Cyano-phenyl)-2H-pyrazol-3-yl]-4-methyl-2-oxo-3-(3-trifluoromethyl-phenyl)-2,3-dihydro-imidazole-1-carboxylic acid (trans-4-dimethylamino-cyclohexyl)-amide]
